Laboratory results taken from ChEMBL document CHEMBL1201862, “PubChem BioAssay data set” (2004).
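How tested: cells in 96-well plates exposed to compound for 48 hours at five concentrations. GI50: concentration for 50% inhibition of growth.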 The source made the active and inactive calls. No stated cut-off is given here; in the data, active = GI50 up to about 1.1 µM and inactive = higher.

Tests used:
Test in all cases: inhibition of tumour cell growth, NCI panel, 48 h
M14 = system: M14
SNB-75 = system: SNB-75
OVCAR-8 = system: OVCAR-8
SK-OV-3 = system: SK-OV-3
HCT-15 = system: HCT-15
RPMI-8226 = system: RPMI-8226
SK-MEL-2 = system: SK-MEL-2
MCF7 = system: MCF7
HCC 2998 = system: HCC 2998
HL-60 = system: HL-60
KM12 = system: KM12
EKVX = system: EKVX
SW-620 = system: SW-620
NCI-H522 = system: NCI-H522
ACHN = system: ACHN
IGROV-1 = system: IGROV-1
NCI-H460 = system: NCI-H460
BT-549 = system: BT-549
K562 = system: K562
A498 = system: A498

| SMILES | GI50 (M14) | GI50 (SNB-75) | GI50 (OVCAR-8) | GI50 (SK-OV-3) | GI50 (HCT-15) [µM] | GI50 (RPMI-8226) | GI50 (SK-MEL-2) | GI50 (MCF7) | GI50 (HCC 2998) | GI50 (HL-60) | GI50 (KM12) | GI50 (EKVX) | GI50 (SW-620) | GI50 (NCI-H522) | GI50 (ACHN) | GI50 (IGROV-1) | GI50 (NCI-H460) | GI50 (BT-549) | GI50 (K562) | GI50 (A498) |
| --- | --- | --- | --- | --- | --- | --- | --- | --- | --- | --- | --- | --- | --- | --- | --- | --- | --- | --- | --- | --- |
| COc1ccc(C(=O)N2CCN(c3ccc4[nH]c(=O)oc4c3)CC2)cc1 | > 100 µM (inactive) | 62.4 µM (inactive) | > 100 µM (inactive) | > 100 µM (inactive) | > 100 | > 100 µM (inactive) | > 100 µM (inactive) | > 100 µM (inactive) | > 100 µM (inactive) | 39.4 µM (inactive) | > 100 µM (inactive) | 78.7 µM (inactive) | > 100 µM (inactive) | 53.1 µM (inactive) | 69.8 µM (inactive) | 99.1 µM (inactive) | > 100 µM (inactive) | > 100 µM (inactive) | – | – |
| CCOC(=O)C1(C(=O)OCC)Nc2cccnc2N(C)N1 | 19.3 µM (inactive) | > 100 µM (inactive) | 18.5 µM (inactive) | > 100 µM (inactive) | 18 | 16.2 µM (inactive) | 19.3 µM (inactive) | 16.3 µM (inactive) | – | 22.8 µM (inactive) | 50.1 µM (inactive) | – | 11.1 µM (inactive) | – | – | 22.8 µM (inactive) | > 100 µM (inactive) | 67.3 µM (inactive) | 22.8 µM (inactive) | 17.5 µM (inactive) |
| N#CC(NNC(=O)c1c(Cl)c(Cl)c(Cl)c(Cl)c1-c1nc2cc(C(=O)c3ccccc3)ccc2[nH]1)c1cccc(Oc2ccccc2)c1 (stereo not drawn) | 25.6 µM (inactive) | 23.7 µM (inactive) | 41.6 µM (inactive) | 33.8 µM (inactive) | 18.4 | 34.8 µM (inactive) | 20.5 µM (inactive) | 20.3 µM (inactive) | – | 28.3 µM (inactive) | 36.6 µM (inactive) | 15.8 µM (inactive) | 27.7 µM (inactive) | – | 25.6 µM (inactive) | 26.7 µM (inactive) | – | 19.1 µM (inactive) | 27.5 µM (inactive) | 20.8 µM (inactive) |
| CN(C)CCNC1=CC(=O)c2nc3ccccc3c3ccnc1c23 | 7.6 µM (inactive) | 13.1 µM (inactive) | 4.36 µM (inactive) | 10.1 µM (inactive) | 3.23 | 5.47 µM (inactive) | 7.38 µM (inactive) | 3.75 µM (inactive) | 4.47 µM (inactive) | 3.83 µM (inactive) | 3.34 µM (inactive) | 2.94 µM (inactive) | 4.42 µM (inactive) | 2.94 µM (inactive) | 3.05 µM (inactive) | 2.47 µM (inactive) | 2.39 µM (inactive) | 7.26 µM (inactive) | 1.19 µM (inactive) | – |
| NC(C(=O)O)C(N)C(=O)O (stereo not drawn) | > 100 µM (inactive) | – | > 100 µM (inactive) | > 100 µM (inactive) | > 100 | > 100 µM (inactive) | > 100 µM (inactive) | > 100 µM (inactive) | – | > 100 µM (inactive) | > 100 µM (inactive) | > 100 µM (inactive) | > 100 µM (inactive) | > 100 µM (inactive) | > 100 µM (inactive) | > 100 µM (inactive) | > 100 µM (inactive) | > 100 µM (inactive) | > 100 µM (inactive) | > 100 µM (inactive) |
| Cc1nc2nn[nH]n2c(=O)c1CCO | > 100 µM (inactive) | 26.6 µM (inactive) | > 100 µM (inactive) | > 100 µM (inactive) | > 100 | > 100 µM (inactive) | > 100 µM (inactive) | > 100 µM (inactive) | > 100 µM (inactive) | > 100 µM (inactive) | > 100 µM (inactive) | > 100 µM (inactive) | > 100 µM (inactive) | > 100 µM (inactive) | > 100 µM (inactive) | > 100 µM (inactive) | > 100 µM (inactive) | – | > 100 µM (inactive) | > 100 µM (inactive) |
| N=C(N)Nc1nc2cc([N+](=O)[O-])ccc2[nH]1 | > 100 µM (inactive) | 22.1 µM (inactive) | > 100 µM (inactive) | > 100 µM (inactive) | > 100 | > 100 µM (inactive) | > 100 µM (inactive) | 48.5 µM (inactive) | – | > 100 µM (inactive) | 37.3 µM (inactive) | 41.6 µM (inactive) | > 100 µM (inactive) | 68.5 µM (inactive) | > 100 µM (inactive) | > 100 µM (inactive) | > 100 µM (inactive) | 48.1 µM (inactive) | 93.5 µM (inactive) | 27 µM (inactive) |
| Cc1ncc(CSC(=N)N)n1Cc1ccccc1 | 48.1 µM (inactive) | – | > 100 µM (inactive) | > 100 µM (inactive) | > 100 | 27.5 µM (inactive) | > 100 µM (inactive) | 39.5 µM (inactive) | – | – | > 100 µM (inactive) | 96.8 µM (inactive) | 45.5 µM (inactive) | 24.7 µM (inactive) | > 100 µM (inactive) | > 100 µM (inactive) | 88.3 µM (inactive) | > 100 µM (inactive) | 66.8 µM (inactive) | > 100 µM (inactive) |
